Here are results for 20 compounds from patent publication US20080267942A1, “BENZAZEPIN-2(1H)-ONE DERIVATIVES” (Pfizer Limited, priority 2006, published 2008).

In test [1] the target is T1, porcine beta-2 adrenoceptor (Sus scrofa, UniProt Q28997).
T1 construct: expressed in transfected cells; host or cells: CHO cells
In words: cAMP assay in CHO cells transfected with the porcine beta-2 adrenoceptor (DiscoveRx Hit Hunter cAMP II). The note with it: CHO cells transfected with porcine beta-2 adrenoceptor, 30 minutes incubation with compound. The class given is cell-based. The gist of the method: (§1)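 CHO cells expressing porcine or bovine β2 receptor pre-incubated 30 min with 0.5 mM IBMX, then exposed to compound (5×10^−12 to 10^−5 M) for 30 min at 37 °C. cAMP read by enzyme-fragment complementation kit; duplicate samples, EC50 from curve fitting.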
In general terms: cAMP levels reflect the balance of adenylyl cyclase and phosphodiesterase activity.

The target in test [2] is T2, bovine beta-2 adrenoceptor (Bos taurus, UniProt Q28044).
T2 construct: expressed in transfected cells; host or cells: CHO cells
T2 sequence (Q28044 whole entry): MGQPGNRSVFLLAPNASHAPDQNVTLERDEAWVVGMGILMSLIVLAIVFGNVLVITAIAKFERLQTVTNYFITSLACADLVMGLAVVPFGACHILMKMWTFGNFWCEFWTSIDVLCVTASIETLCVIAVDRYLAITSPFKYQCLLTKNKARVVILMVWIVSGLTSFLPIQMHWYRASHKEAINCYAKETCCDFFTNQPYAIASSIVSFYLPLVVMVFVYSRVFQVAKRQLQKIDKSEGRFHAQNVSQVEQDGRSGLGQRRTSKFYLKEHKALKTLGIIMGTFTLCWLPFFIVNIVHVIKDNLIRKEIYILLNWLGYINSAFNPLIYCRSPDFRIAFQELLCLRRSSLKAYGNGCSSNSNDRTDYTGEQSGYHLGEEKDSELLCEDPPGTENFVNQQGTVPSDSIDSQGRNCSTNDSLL
In words: cAMP assay in CHO cells transfected with the bovine beta-2 adrenoceptor (DiscoveRx Hit Hunter cAMP II). The class given is cell-based. The note with it: CHO cells transfected with bovine beta-2 adrenoceptor, 30 minutes incubation with compound. In short, it runs like this: as §1

T1 sequence (Q28997 whole entry): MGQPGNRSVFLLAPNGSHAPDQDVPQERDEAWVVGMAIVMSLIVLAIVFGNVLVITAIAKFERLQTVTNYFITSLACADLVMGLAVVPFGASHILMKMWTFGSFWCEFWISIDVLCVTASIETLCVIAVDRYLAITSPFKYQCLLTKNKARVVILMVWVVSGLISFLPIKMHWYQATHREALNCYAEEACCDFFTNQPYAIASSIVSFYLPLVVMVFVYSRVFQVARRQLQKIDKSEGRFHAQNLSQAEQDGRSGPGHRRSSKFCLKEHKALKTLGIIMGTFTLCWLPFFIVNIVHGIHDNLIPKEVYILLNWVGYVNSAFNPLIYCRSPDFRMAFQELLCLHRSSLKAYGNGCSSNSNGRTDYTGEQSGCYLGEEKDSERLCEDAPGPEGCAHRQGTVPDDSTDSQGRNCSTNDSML

In the case of `CC(CCn1cncn1)N[C@@H]1CCn2c(=O)[nH]c3cccc(c32)[C@H]1O` (single isomer, unassigned) [Example 61], the results for the EC50 in test [1] and in test [2] were 0.018 µM and 0.028 µM, respectively.
As for `CC(CCc1c[nH]c2ccncc12)N[C@@H]1CCn2c(=O)[nH]c3cccc(c32)[C@H]1O` (single isomer, unassigned) [Example 62], the figures for the EC50 in test [1] and in test [2] were 0.028 µM and 0.035 µM, respectively.
On to `Cc1cc(CCC(C)N[C@@H]2CCn3c(=O)[nH]c4cccc(c43)[C@H]2O)ccn1` (single isomer, unassigned) [Example 63], for which the EC50 in test [1] is 0.025 µM; in test [2], 0.081 µM.
For `Cc1cc(C)n(CCC(C)N[C@@H]2CCn3c(=O)[nH]c4cccc(c43)[C@H]2O)n1` (single isomer, unassigned) [Example 64] the same measures were 0.188 µM and 0.169 µM.
Regarding `C[C@H](CCc1c[nH]c2ccccc12)N[C@@H]1CCn2c(=O)[nH]c3cccc(c32)[C@H]1O` [Example 4e, 7-Hydroxy-6-{[3-(1H-indol-3-yl)-1-methylpropyl]amino}-4,5,6,7-tetrahydroimidazo[4,5,1-jk][1]benzazepin-2(1H)-one], the results for the EC50 in test [1] and in test [2] were 0.0037 µM and 0.0011 µM, respectively.
The matching figures for `C[C@H](CCc1c[nH]c2ccccc12)N[C@@H]1CCn2c(=O)[nH]c3cccc(c32)[C@H]1O` [Example 4f, 7-Hydroxy-6-{[3-(1H-indol-3-yl)-1-methylpropyl]amino}-4,5,6,7-tetrahydroimidazo[4,5,1-jk][1]benzazepin-2(1H)-one]: 0.0025 µM and 0.0017 µM.
For the compound `CNc1nc(CC(C)NC2CCn3c(=O)[nH]c4cccc(c43)C2O)ns1` (stereo not shown) [Example 10, 7-Hydroxy-6-({1-methyl-2-[5-(methylamino)-1,2,4-thiadiazol-3-yl]ethyl}amino)-4,5,6,7-tetrahydroimidazo[4,5,1-jk][1]benzazepin-2(1H)-one], the figures for the EC50 in test [1] and in test [2] were 0.399 µM and 0.497 µM, respectively.
Take `CC(Cc1ccco1)NC1CCn2c(=O)[nH]c3cccc(c32)C1O` (stereo not shown) [Example 11, 6-{[2-(2-Furyl)-1-methylethyl]amino}-7-hydroxy-4,5,6,7-tetrahydroimidazo[4,5,1-jk][1]benzazepin-2(1H)-one]: the half-maximal effective concentration (EC50) came to 0.064 µM in test [1] and 0.108 µM in test [2].
For `CC(CCc1nc2ccccc2[nH]1)NC1CCn2c(=O)[nH]c3cccc(c32)C1O` (stereo not shown) [Example 12, 6-{[3-(1H-Benzimidazol-2-yl)-1-methylpropyl]amino}-7-hydroxy-4,5,6,7-tetrahydroimidazo[4,5,1-jk][1]benzazepin-2(1H)-one] the same measures were 0.053 µM and 0.034 µM.
On to `CC(CCc1ccccn1)NC1CCn2c(=O)[nH]c3cccc(c32)C1O` (stereo not shown) [Example 13, 7-Hydroxy-6-[(1-methyl-3-pyridin-2-ylpropyl)amino]-4,5,6,7-tetrahydroimidazo[4,5,1-jk][1]benzazepin-2(1H)-one], for which the concentration giving a half-maximal response (EC50) in test [1] was 0.184 µM; in test [2] it was 0.356 µM.
For `CC(CCc1cn(C)c2ccccc12)NC1CCn2c(=O)[nH]c3cccc(c32)C1O` (stereo not shown) [Example 14a, 7-Hydroxy-6-{[1-methyl-3-(1-methyl-1H-indol-3-yl)propyl]amino}-4,5,6,7-tetrahydroimidazo[4,5,1-jk][1]benzazepin-2(1H)-one] the same measures were 0.026 µM and 0.018 µM.
The matching figures for `CC(CCn1cccn1)NC1CCn2c(=O)[nH]c3cccc(c32)C1O` (stereo not shown) [Example 15, 7-Hydroxy-6-{[1-methyl-3-(1H-pyrazol-1-yl)propyl]amino}-4,5,6,7-tetrahydroimidazo[4,5,1-jk][1]benzazepin-2(1H)-one]: 0.098 µM and 0.161 µM.
For `O=c1[nH]c2cccc3c2n1CCC(NCCCc1c[nH]c2ccccc12)C3O` (stereo not shown) [Example 19, 7-Hydroxy-6-{[3-(1H-indol-3-yl)propyl]amino}-4,5,6,7-tetrahydroimidazo[4,5,1-jk][1]benzazeopin-2(1H)-one] the same measures were 0.065 µM and 0.05 µM.
Turning to `CC(CCc1nccs1)NC1CCn2c(=O)[nH]c3cccc(c32)C1O` (stereo not shown) [Example 24a, 7-Hydroxy-6-{[1-methyl-3-(1,3-thiazol-2-yl)propyl]amino}-4,5,6,7-tetrahydroimidazo[4,5,1-jk][1]benzazepin-2(1H)-one], the values for the EC50 in test [1] and in test [2] were 0.464 µM and 0.409 µM, respectively.
On to `CC(CCc1c[nH]c2ccncc12)NC1CCn2c(=O)[nH]c3cccc(c32)C1O` (stereo not shown) [Example 31a, 7-Hydroxy-6-{[1-methyl-3-(1H-pyrrolo[3,2-c]pyridin-3-yl)propyl]amino}-4,5,6,7-tetrahydroimidazo[4,5,1-jk][1]benzazepin-2(1H)-one], for which the EC50 in test [1] was 0.146 µM; in test [2], 0.197 µM.
The matching figures for `CC(CCc1c[nH]c2cnccc12)NC1CCn2c(=O)[nH]c3cccc(c32)C1O` (stereo not shown) [Example 32a, 7-Hydroxy-6-{[1-methyl-3-(1H-pyrrolo[2,3-c]pyridin-3-yl)propyl]amino}-4,5,6,7-tetrahydroimidazo[4,5,1-jk][1]benzazepin-2(1H)-one]: 0.092 µM and 0.052 µM.
The matching figures for `CC(CCc1ccc[nH]c1=O)NC1CCn2c(=O)[nH]c3cccc(c32)C1O` (stereo not shown) [Example 36, 7-Hydroxy-6-{[1-methyl-3-(2-oxo-1,2-dihydropyridin-3-yl)propyl]amino}-4,5,6,7-tetrahydroimidazo[4,5,1-jk][1]benzazepin-2(1H)-one]: 0.056 µM and 0.059 µM.
In the case of `Cc1c(CC[C@@H](C)N[C@@H]2CCn3c(=O)[nH]c4cccc(c43)[C@H]2O)cnn1C` [Example 53, (6R,7R)-6-{[(1R)-3-(1,5-Dimethyl-1H-pyrazol-4-yl)-1-methylpropyl]amino}-7-hydroxy-4,5,6,7-tetrahydroimidazo[4,5,1-jk][1]benzazepin-2(1H)-one], the EC50 was found to be 0.0028 µM in test [1] and 0.002 µM in test [2].
For `C[C@H](CCc1cnco1)N[C@@H]1CCn2c(=O)[nH]c3cccc(c32)[C@H]1O` [Example 66, (6R,7R)-7-hydroxy-6-{[(1R)-1-methyl-3-(1,3-oxazol-5-yl)propyl]amino}-4,5,6,7-tetrahydroimidazo[4,5,1-jk][1]benzazepin-2(1H)-one] the same measures were 0.0062 µM and 0.0187 µM.
Take `COc1ncc(CC[C@@H](C)N[C@@H]2CCn3c(=O)[nH]c4cccc(c43)[C@H]2O)s1` [Example 67, (6R,7R)-7-hydroxy-6-{[(1R)-3-(2-methoxy-1,3-thiazol-5-yl)-1-methylpropyl]amino}-4,5,6,7-tetrahydroimidazo[4,5,1-jk][1]benzazepin-2(1H)-one]: the EC50 in test [1] and in test [2] was 0.0027 µM throughout.

By EC50 is commonly meant the concentration needed to bring the measured effect to its halfway point.
